# Assays:
# Assay type in all cases: in vivo, Zea mays (maize)
# corn [1] = assay: Corn silage strip trials Wisconsin 2006: NIRS forage quality and MILK 2006 calculated milk production
# Method: (§1) Field trials were conducted as strip trials in farm fields in 2006 and 2008. A part of the field was treated with pyraclostrobin applied as Headline® whereas another part was left untreated. Headline® was applied at tassel emergence with 0.44 L/ha (110 g pyraclostrobin per ha) by aerial or ground application with a high clearance sprayer. Total spray volume was 93.5 to 187 L/ha for ground application and 18.7 to 46.7 L/ha for aerial application, respectively. Water was used as a carrier to prepare the spray mixture.
# (§2) Trials were harvested using a commercial forage harvester when the corn crop reached a dry matter content of about 30 to 40%. The treated and untreated area of the field was harvested separately to gain total biomass yield (ton/acre). Subsequently, the harvested plant material was used for producing silage.
# (§3) Forage samples from the harvested plants were taken from both the treated and untreated areas of the field. Samples were taken from the harvested material in the forage wagon following chopping with the commercial harvester. Multiple forage samples were taken for each of both treatments manually during harvesting in each of the trials, mixed in a larger container, and a subsample of 1.3 to 2.25 kg was taken. The subsamples were placed in plastic bags, sealed, cooled, and shipped immediately to Agsource Soil and Forage Laboratory, 106 North Cecil Street, Bonduel Wis. 54107, USA for Near Infrared Reflectance Spectroscopy (NIRS) analysis.
# Typically, samples for NIRS analysis are first dried at 55 to 65° C. for 24 h to 48 h prior to analysis. A representative subsample thereof is then dried at 105° C. for another 12 h to 24 h to evaluate the dry matter content of the samples. Subsequently, the remaining sample is grinded and homogenized and again a representative subsample is used for the NIRS analysis. The NIRS analysis procedure uses a commercially available calibration to estimate the values for each quality parameter based on the spectral reflectance information gained. […]
# corn [2] = assay: Corn silage strip trials New York 2006: NIRS forage quality and MILK 2006 calculated milk production; settings: New York 2006, pyraclostrobin vs untreated
# Method: as §1, §2
# as §3, with “54107, USA for Near Infrared Reflectance Spectroscopy (NIRS) analysis.” left out
# corn [3] = assay: Corn silage strip trials Maryland 2006: NIRS forage quality and MILK 2006 calculated milk production
# Method: as §1, §2, §3
# Typically, samples for NIRS analysis are first dried at 55 to 65° C. for 24 h to 48 h prior to analysis. A representative subsample thereof is then dried at 105° C. for another 12 h to 24 h to evaluate the dry matter content of the samples. Subsequently, the remaining sample is grinded and homogenized and again a representative subsample is used for the NIRS analysis. The NIRS analysis procedure uses a commercially available calibration to estimate the values for each quality parameter based on the spectral reflectance information gained. The calibrations are based on the near infra red reflectance spectra of samples with known quality data. The comparison of the spectra of the samples with unknown quality data with the spectra of the known samples allows calculating estimates for each quality parameter of interest.
# NIRS analysis provided dry matter, crude protein, Acid Detergent Fibre (ADF), Neutral Detergent Fibre (NDF), and starch data. Calculations were included for moisture, adjusted crude protein, Total Digestible Nutrients (TDN), Net Energy for Lactation (NEL), Net Energy for Gain (NEG) and protein solubility.
# The information was then entered into the MILK 2006 University of Wisconsin Corn Silage evaluation system. Calculations of the milk production, energy content and digestibility per ton of corn biomass were carried out using a calculation method described in:
# a) Schwab, E. C., and R. D. Shaver. 2001: “Evaluation of corn silage nutritive value using MILK2000” (pages 21-24) in Proc. of 25th Forage Production and Use Symposium. WI Forage Council Annual Mtg. Eau Claire, Wis.
# b) Schwab, E. C., R. D. Shaver. J. G. Lauer, and J. G. Coors. 2003: “Estimating silage energy value and milk yield to rank corn hybrids”. J. Anim. Feed Sci. Technol. 109: 1-18. as well as in
# c) Undersander, D. J., W. T. Howard, and R. D. Shaver. 1993: “Milk per acre spreadsheet for combining yield and quality into a single term”. J. Prod. Ag. 6: 231 235.
# In 2006 a total of 16 strip trials were conducted in Queen Ann County, Md. Trial setup, treatments, application, harvesting, sampling and quality analysis including calculation of milk production per ton and per acre followed the procedure described before.
# corn hybrid varieties = assay: Field trial Wisconsin 2008 with eight corn hybrids: calculated milk production per ton of harvested biomass
# Method: as §1, §2
# as §3, with “54107, USA for Near Infrared Reflectance Spectroscopy (NIRS) analysis.” left out
# [4] = Wisconsin 2006, pyraclostrobin vs untreated
# [5] = Maryland 2006, pyraclostrobin vs untreated
smiles,measurement,setting,value
"COC(=O)N(OC)c1ccccc1COc1ccn(-c2ccc(Cl)cc2)n1 [Pyraclostrobin, pyraclostrobin]",crude protein content (% CP),"corn [1]; Wisconsin 2006, average of 7 strip trials, 110 g pyraclostrobin per ha",7.5%
same,"% CP, % Difference to Untreated",corn [1]; [4],+4.2%
same,"Milk (kg/t), % Difference to Untreated",corn [1]; [4],+14.0%
same,"% CP, % Difference to Untreated",corn [2],+6.0%
same,"% Dry Matter, % Difference to Untreated",corn [2],−2.2%
same,total digestible nutrients as percent of dry matter (TDN % of DM),"corn [3]; Maryland 2006, average of 16 strip trials, 110 g pyraclostrobin per ha",70.0 % of DM
same,crude protein content (% CP),"corn [3]; Maryland 2006, average of 16 strip trials, Headline at tassel emergence, 110 g pyraclostrobin per ha",7.1%
same,"% CP, % Difference to Untreated",corn [3]; [5],+6.0%
same,"% NDF, % Difference to Untreated",corn [3]; [5],−4.8%
same,"% NDFD, % Difference to Untreated",corn [3]; [5],+3.9%
same,"Milk (kg/t), % Difference to Untreated",corn [3]; [5],+5.9%
same,"TDN % of DM, % Difference to Untreated",corn [3]; [5],+3.6%
same,"Calculated milk production, Milk (kg/t)","corn hybrid varieties; Example 4.6, hybrid DS93VT3, Wisconsin 2008",1600 kg/t
same,milk production per ton of harvested corn biomass used to produce silage,"corn hybrid varieties; across the eight tested different corn hybrids, result in words",improves the milk production
